# ChEMBL document CHEMBL1201862, “PubChem BioAssay data set” (2004)
# Activity calls are given as the source filed them.
# Legend:
# [1] = molecular target: T1, Rac GTPase-activating protein 1 (Homo sapiens, UniProt Q9H0H5); assay: blockers of MgcRacGAP-driven Rac1 GTP hydrolysis – biochemical, ADP Hunter fluorescence, primary and confirmatory, confirmation (AID 624330); type: functional
# T1 sequence (Q9H0H5 whole entry): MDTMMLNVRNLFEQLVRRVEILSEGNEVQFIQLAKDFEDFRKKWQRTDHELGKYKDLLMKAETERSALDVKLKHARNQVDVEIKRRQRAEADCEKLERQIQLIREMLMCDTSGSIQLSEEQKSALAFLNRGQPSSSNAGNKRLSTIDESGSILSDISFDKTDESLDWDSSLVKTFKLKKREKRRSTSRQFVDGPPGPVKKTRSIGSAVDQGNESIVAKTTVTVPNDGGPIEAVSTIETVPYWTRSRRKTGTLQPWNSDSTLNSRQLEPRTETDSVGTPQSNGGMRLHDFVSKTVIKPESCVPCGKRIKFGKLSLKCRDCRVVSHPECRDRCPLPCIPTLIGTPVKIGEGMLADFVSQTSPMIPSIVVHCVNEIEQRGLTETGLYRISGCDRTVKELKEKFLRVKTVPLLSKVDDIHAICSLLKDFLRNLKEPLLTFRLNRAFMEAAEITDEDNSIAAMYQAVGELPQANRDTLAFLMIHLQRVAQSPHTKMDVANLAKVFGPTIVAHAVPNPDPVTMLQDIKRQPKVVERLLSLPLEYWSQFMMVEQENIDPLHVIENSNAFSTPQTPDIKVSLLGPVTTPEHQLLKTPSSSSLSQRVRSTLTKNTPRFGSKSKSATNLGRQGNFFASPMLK
# [2] = luciferase reporter signal suppression in cells – H4 neuroglioma cells, luminescence, dose response (AID 1990); type: functional, cell-based
# [3] = Luminescence Cell-Based Dose Response HTS to Identify Inhibitors of 5'UTR Stem-Loop Driven Prion Protein mRNA Translation in H4 Neuroglioblastoma Cells. [Related pubchem assays: 1827 (Project Summary), 1813 (Primary HTS)]; type: functional
# [4] = alpha-synuclein stem-loop luciferase translation blockers – H4 neuroglioma cells, luminescence, confirmation (AID 1988); type: functional, cell-based
# [5] = molecular target: Cytochrome P450 2C19 (Homo sapiens, UniProt P33261); assay: Cytochrome panel assay with activity outcomes. Panel member name: p450-cyp2c19 Compounds with AC50 equal or less than 10 uM are considered active; type: functional
# [6] = system: Streptococcus sp. 'group A'; assay: Streptococcus pyogenes SK(-)GAS viability under kanamycin – luminescence, BacTiterGlo, confirmation, counter-screen for streptokinase expression inhibitor project, dose response (AID 1900); type: functional, organism-based
# [7] = molecular target: T2, Streptokinase A (Streptococcus pyogenes serotype M1, UniProt P10520); assay: viability-normalized secreted streptokinase activity reduction – plasminogen activation absorbance, OD405, dose response (AID 1914); type: functional, Streptococcus pyogenes M1 GAS;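 also: secreted streptokinase activity via plasminogen activation per viability signal from cell pellet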
# T2 sequence (P10520 whole entry): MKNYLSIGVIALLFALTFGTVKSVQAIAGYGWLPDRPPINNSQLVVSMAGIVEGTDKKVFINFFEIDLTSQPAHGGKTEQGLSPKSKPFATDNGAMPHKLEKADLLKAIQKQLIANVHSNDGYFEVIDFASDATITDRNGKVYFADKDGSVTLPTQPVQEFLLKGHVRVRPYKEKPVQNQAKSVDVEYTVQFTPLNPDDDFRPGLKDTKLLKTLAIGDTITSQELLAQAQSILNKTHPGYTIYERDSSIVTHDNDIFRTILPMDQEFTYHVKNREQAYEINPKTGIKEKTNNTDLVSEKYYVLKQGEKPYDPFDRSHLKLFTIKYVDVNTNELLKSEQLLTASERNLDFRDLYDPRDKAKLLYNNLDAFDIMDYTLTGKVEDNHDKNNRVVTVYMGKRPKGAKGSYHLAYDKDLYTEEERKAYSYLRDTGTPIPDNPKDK
# [8] = system: Streptococcus; assay: GAS UMAA2166 growth inhibition – luminescence, BacTiterGlo, counter-screen for streptokinase expression inhibitor project, dose response (AID 1915); type: functional, organism-based;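 also: potency for reduction of bacterial viability or growth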
# [9] = Luminescence Cell-Based Dose Retest to Confirm Inhibitors of Cancer Stem Cells. [Related pubchem assays (depositor defined):AID2717, AID2721]; type: functional; details: Homo sapiens
# [10] = Trypanosoma cruzi growth suppression in host cells – NIH3T3 host cells, beta-gal luminescence, confirmation (AID 2044); type: functional, cell-based;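 also: intracellular parasites grown in NIH/3T3 mouse fibroblasts as host cells; luminescent beta-galactosidase reporter signal from transgenic T. cruzi replicating inside host cells; inhibitors lower the luminescence signal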
# [11] = NIH3T3 cell viability loss – ATP luminescence, mouse fibroblasts, counter-screen, dose response (AID 2010); type: functional, cell-based;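 also: cells exposed to compound for about 90 hours before reading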
# [12] = Luminescence Cell-Based Dose Response HTS to Identify Activators of Luciferase Translation or Activity in H4 […] Cells. [Related pubchem assays: 1829 (Project Summary), 1814 (Primary HTS)]; type: functional
# [13] = system: H4; assay: Luminescence Cell-Based Dose Response HTS to Identify Activators of 5'UTR Stem-Loop Driven Prion Protein mRNA Translation in H4 Neuroglioblastoma Cells. [Related pubchem assays: 1829 (Project Summary), 1814 (Primary HTS)]; type: functional; details: Homo sapiens
# [14] = viability of PTEN-deleted HCT116 cells – cell-based, HCT116 PTEN knockout, dose response (AID 1047); type: functional;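 also: HCT116 colon tumor cells with PTEN knocked out; cells exposed to compound for 60 hours before readout; potency for loss of cell viability measured by luminescence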
# [15] = viability of HCT116 lacking mutant beta-catenin – cell-based, human colon tumor, dose response (AID 1045); type: functional;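 also: HCT116 colon tumor cells with beta catenin knocked out; cells exposed to compound for 60 hours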
# Sequence of Cytochrome P450 2C19 (P33261 whole entry): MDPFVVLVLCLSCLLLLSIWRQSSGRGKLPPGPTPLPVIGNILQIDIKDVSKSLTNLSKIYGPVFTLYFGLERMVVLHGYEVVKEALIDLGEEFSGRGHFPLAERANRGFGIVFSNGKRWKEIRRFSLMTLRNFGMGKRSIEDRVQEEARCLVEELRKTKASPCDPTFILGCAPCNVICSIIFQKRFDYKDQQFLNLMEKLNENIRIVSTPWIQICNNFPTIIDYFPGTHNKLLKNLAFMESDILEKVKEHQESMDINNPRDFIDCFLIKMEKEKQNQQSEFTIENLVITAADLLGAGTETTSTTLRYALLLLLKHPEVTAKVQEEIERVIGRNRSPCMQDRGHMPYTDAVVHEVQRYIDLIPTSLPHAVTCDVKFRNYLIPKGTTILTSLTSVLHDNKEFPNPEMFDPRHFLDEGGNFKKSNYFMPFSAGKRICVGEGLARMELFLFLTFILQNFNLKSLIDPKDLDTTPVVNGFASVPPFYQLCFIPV
compound,measurement,setting,value
Cc1ccc(CN2CCN(Cc3ccccc3F)CC2)cc1,IC50,[1],76.6 µM (active)
COc1ccccc1NC(=O)CSc1nnc(COc2ccc(Cl)cc2)n1Cc1ccco1,EC50,[2],> 120 µM (not active)
same,EC50,[3],> 120 µM (not active)
same,EC50,[4],48 µM (active)
O=C(O)CC[C@@H](C(=O)O)N1C(=O)[C@@H]2[C@@H]3CC[C@H](C3)[C@@H]2C1=O,AC50,[5],inconclusive
OCCCCC#Cc1c(-c2ccsc2)sc2ccccc12,EC50,[6],6.64 µM (active)
same,EC50,[7],> 150 µM (not active)
same,EC50,[8],8.45 µM (active)
same,AC50,[9],3.15 µM (active)
CCOc1ccc(-n2c([S-])c(C(=O)Nc3ccc(S(=O)(=O)N4CCOCC4)cc3)[n+]3cc(C(N)=O)ccc23)cc1,EC50,[2],24.1 µM (active)
same,EC50,[3],> 120 µM (not active)
same,EC50,[4],17.5 µM (active)
CCOC(=O)c1c(NC(=O)c2c(N)n(CCCOC)c3nc4ccccc4nc23)sc2c1CCCC2,EC50,[6],4.29 µM (active)
same,EC50,[7],> 150 µM (not active)
same,EC50,[10],2.74 µM (active)
same,EC50,[11],> 60 µM (not active)
same,EC50,[8],25.1 µM (active)
N#CC1=C(N)OC2=C(CCc3ccccc32)C1c1ccccc1Cl (configuration not stated),EC50,[6],4.61 µM (active)
same,EC50,[7],11.9 µM (active)
same,EC50,[8],18.9 µM (active)
COc1cccc(CN2CCC(C(=O)N3CCC(C)CC3)CC2)c1,IC50,[1],162 µM (active)
NCCS(=O)(=O)NC1CCCCC1,EC50,[6],> 150 µM (not active)
same,EC50,[7],> 150 µM (not active)
same,EC50,[8],> 150 µM (not active)
CC(OC(=O)CC1CCCC1)C(=O)Nc1ccc(S(N)(=O)=O)cc1 (configuration not stated),EC50,[6],> 150 µM (not active)
same,EC50,[7],> 150 µM (not active)
same,EC50,[8],> 150 µM (not active)
CC(C)CNCCc1ccccn1,AC50,[5],inconclusive
CCC(C)c1ccccc1NS(=O)(=O)c1cnn(CC)c1 (configuration not stated),EC50,[6],> 150 µM (not active)
same,EC50,[7],> 150 µM (not active)
same,EC50,[8],> 150 µM (not active)
O=S(=O)(Nc1cc(O)nc(SCc2ccccc2Cl)n1)c1ccccc1,EC50,[2],> 120 µM (not active)
same,EC50,[3],> 120 µM (not active)
same,EC50,[4],12.8 µM (active)
CCCS(=O)(=O)N1CCN(CC2CC3C=CC2C3)CC1 (configuration not stated),IC50,[1],205 µM (active)
CCCn1cnc2cc(NCc3cccs3)ccc21,EC50,[12],11.8 µM (active)
same,EC50,[13],13.4 µM (active)
COc1ccc(Oc2c(Cl)cnn(-c3ccc(Cl)c(Cl)c3)c2=O)cc1,EC50,[2],15 µM (active)
same,EC50,[3],13.4 µM (active)
same,EC50,[4],8.46 µM (active)
same,EC50,[14],91.6 µM (active)
same,EC50,[15],10.8 µM (active)
same,AC50,[9],4.57 µM (active)
O=C(c1cnn2c(C(F)(F)F)cc(-c3ccccc3)nc12)N1CCCCC1c1cccnc1 (configuration not stated),EC50,[2],> 120 µM (not active)
same,EC50,[3],75.7 µM (active)
same,EC50,[4],> 120 µM (not active)
same,EC50,[10],0.506 µM (active)
same,EC50,[11],> 60 µM (not active)
Cc1ccc(NCCCCO)cc1C,IC50,[1],35.9 µM (active)
COc1cccc(-c2nc(NCCNC(C)=O)c3ccccc3n2)c1,AC50,[5]; read-out: AC50,15.8 µM (inconclusive)
COc1ccc(O)c(C(=O)c2coc(=N)c(C(=O)Nc3ccc(SC(F)F)cc3)c2)c1,EC50,[6],40.6 µM (active)
same,EC50,[7],> 150 µM (not active)
same,EC50,[8],> 150 µM (not active)
CCOC(=O)N1CCN(C(=O)c2ccc3c(c2)N(C)C(=O)/C(=C\c2ccc(OCC)c(OC)c2)S3)CC1,EC50,[6],0.624 µM (active)
same,EC50,[7],> 150 µM (not active)
same,EC50,[8],4.57 µM (active)
CC(C)(C)c1cc(-c2ccco2)c(C#N)c(SCC#N)n1,EC50,[2],16 µM (active)
same,EC50,[3],> 120 µM (not active)
same,EC50,[4],15.2 µM (active)
CN(C)c1ccc(C2C=C(c3ccc(Cl)cc3OC(F)F)Nc3ncnn32)cc1 (configuration not stated),EC50,[6],9.65 µM (active)
same,EC50,[7],> 150 µM (not active)
same,EC50,[8],16.4 µM (active)
CCN1CCN(CC(=O)Nc2cc(C(F)(F)F)ccc2OCCOC)CC1,IC50,[1],48.5 µM (active)
O=C(Cc1csc(Nc2[nH]c(=S)nc3ccccc23)n1)NCCCN1CCN(c2cccc(Cl)c2)CC1,EC50,[7],> 150 µM (not active)
CCSc1nnc(-c2cccnc2)n1-c1ccc(C)c(Cl)c1,EC50,[2],> 120 µM (not active)
same,EC50,[3],> 120 µM (not active)
same,EC50,[4],> 120 µM (not active)
CN1CCC(=C2c3ccccc3CCc3sccc32)CC1,AC50,[5]; read-out: AC50,3.98 µM (inconclusive)
Cc1ccc(Oc2cc(N3CCOCC3)nc(-c3ccccc3)n2)cc1,AC50,[5]; read-out: AC50,2.24 µM (inconclusive)
Cc1cccn2c(O)c(C(=O)NC3CC(C)CC(C)(C)C3)c(=O)nc12 (configuration not stated),EC50,[2],13.1 µM (active)
same,EC50,[3],2.59 µM (active)
same,EC50,[4],16.3 µM (active)
CC(C)(C)CC(C)(C)NCC(=O)Nc1c2c(nc3ccccc13)CCC2,IC50,[1],88.7 µM (active)
CCCCC(=O)Nc1nc(C)c(-c2csc(Nc3cc(OC)ccc3OC)n2)s1,EC50,[2],12.2 µM (active)
same,EC50,[3],18.2 µM (active)
same,EC50,[4],7.93 µM (active)
same,AC50,[9],1.35 µM (active)
COc1ccc(-c2nc(/C=C3\C(C)=Nc4ccccc43)c(O)o2)cc1,EC50,[6],3.54 µM (active)
same,EC50,[7],> 150 µM (not active)
same,EC50,[8],12.1 µM (active)
O=C(c1ccc(F)cc1)N1CCN(C2CCCCC2)CC1,IC50,[1],196 µM (active)
COCCn1c(=O)c(CCc2ccccc2)nc2cnc(N3CCN(C)CC3)nc21,AC50,[5]; read-out: AC50,10 µM (inconclusive)
COc1cccc(CNCc2ccccc2Br)c1OC,IC50,[1],145 µM (active)
CCOC(=O)c1[nH]c2ccccc2c1N=C(S)Nc1cc(C)ccc1C,IC50,[1],77.5 µM (active)
Cn1cccc1CNC(=O)Nc1ccc(Cl)c(Cl)c1,EC50,[12],1.66 µM (active)
same,EC50,[13],> 120 µM (not active)
O=C(NCCCN1CCCC1=O)c1ccc(CNS(=O)(=O)c2ccc(F)cc2)cc1,AC50,[5]; read-out: AC50,39.8 µM (inconclusive)
C=CCn1c(SCC(=O)Nc2ccc(O)cc2)nc2sc(CC)cc2c1=O,IC50,[1],54.5 µM (active)
Cc1cc(-c2nnc(S)n2/N=C/c2ccc(Br)s2)[nH]n1,IC50,[1],91.6 µM (active)
COc1cc(/C=N/NC(=O)c2ccccc2NS(=O)(=O)c2cccs2)ccc1O,IC50,[1],74.5 µM (active)
Cc1cccc(C)c1OCc1nc2ccccc2c(=O)n1/N=C/c1c[nH]c2ccccc12,EC50,[10],1.14 µM (active)
same,EC50,[14],23.6 µM (active)
same,EC50,[11],> 30 µM (not active)
same,EC50,[15],24.7 µM (active)
CN(C)c1ccc(N/C=C/C(=O)C(C)(C)C)cc1,IC50,[1],7.98 µM (active)
O=C(O)Cc1sc(-c2ccc(Cl)cc2)nc1-c1ccccc1,AC50,[5]; read-out: AC50,14.1 µM (inconclusive)
CC(C)=CCc1c(-c2ccc(O)cc2O)oc2cc3c(c(O)c2c1=O)C=CC(C)(C)O3 [CUDRAFLAVONE B],EC50,[6],3.36 µM (active)
same,EC50,[7],> 150 µM (not active)
same,EC50,[8],4.94 µM (active)
CC(=O)NC[C@H]1CN(c2ccc(N3CCOCC3)c(F)c2)C(=O)O1 [LINEZOLID],EC50,[6],0.17 µM (active)
same,EC50,[7],6 µM (inconclusive)
same,EC50,[8],0.645 µM (active)
